{"source": "PubChem BioAssay (NCI)", "assay_in_all_cases": "NCI-60 cell line screen, 48 h", "key": {"IGROV1 ovarian": {"system": "IGROV1 ovarian"}, "SK-MEL-2 melanoma": {"system": "SK-MEL-2 melanoma"}, "HL-60(TB) leukemia": {"system": "HL-60(TB) leukemia"}, "SW-620 colon": {"system": "SW-620 colon"}, "SK-MEL-28 melanoma": {"system": "SK-MEL-28 melanoma"}, "MDA-MB-435": {"system": "MDA-MB-435"}, "SF-539 CNS": {"system": "SF-539 CNS"}, "HS 578T breast": {"system": "HS 578T breast"}, "HCC-2998 colon": {"system": "HCC-2998 colon"}, "HOP-62 NSCLC": {"system": "HOP-62 NSCLC"}, "DU-145 prostate": {"system": "DU-145 prostate"}, "T-47D breast": {"system": "T-47D breast"}, "KM12 colon": {"system": "KM12 colon"}, "OVCAR-3 ovarian": {"system": "OVCAR-3 ovarian"}, "OVCAR-5 ovarian": {"system": "OVCAR-5 ovarian"}, "COLO 205 colon": {"system": "COLO 205 colon"}, "RPMI-8226 leukemia": {"system": "RPMI-8226 leukemia"}, "UACC-257 melanoma": {"system": "UACC-257 melanoma"}, "TK-10 renal": {"system": "TK-10 renal"}, "HT29 colon": {"system": "HT29 colon"}, "HOP-92 NSCLC": {"system": "HOP-92 NSCLC"}, "786-0 renal": {"system": "786-0 renal"}, "ACHN renal": {"system": "ACHN renal"}, "OVCAR-8 ovarian": {"system": "OVCAR-8 ovarian"}, "OVCAR-4 ovarian": {"system": "OVCAR-4 ovarian"}, "CCRF-CEM leukemia": {"system": "CCRF-CEM leukemia"}, "EKVX NSCLC": {"system": "EKVX NSCLC"}, "NCI-H23 lung": {"system": "NCI-H23 lung"}, "NCI-H460 lung": {"system": "NCI-H460 lung"}}, "note": "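Values below derive from 48-hour exposures of cells grown in 96-well plates, with endpoints linearly interpolated between the two concentrations bracketing the appropriate inhibition level. Abbreviation: GI50, concentration required for 50% inhibition of growth. TGI is the concentration that stops growth completely.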", "data": [{"smiles": "C#C[C@@]1(O)[C@@H](CO)O[C@@H](n2cc(Br)c3c(Cl)ccnc32)[C@@H]1O", "values": [{"measurement": "GI50", "setting": "IGROV1 ovarian", "value": 4.86, "unit": "µM"}, {"measurement": "TGI", "setting": "IGROV1 ovarian", "value": "> 100", "unit": "µM"}, {"measurement": "GI50", "setting": "SK-MEL-2 melanoma", "value": 35.2, "unit": "µM"}, {"measurement": "TGI", "setting": "SK-MEL-2 melanoma", "value": "> 100", "unit": "µM"}, {"measurement": "GI50", "setting": "HL-60(TB) leukemia", "value": 1.03, "unit": "µM"}, {"measurement": "TGI", "setting": "HL-60(TB) leukemia", "value": 3.69, "unit": "µM"}, {"measurement": "GI50", "setting": "SW-620 colon", "value": 0.552, "unit": "µM"}, {"measurement": "TGI", "setting": "SW-620 colon", "value": "> 100", "unit": "µM"}, {"measurement": "GI50", "setting": "SK-MEL-28 melanoma", "value": "> 100", "unit": "µM"}, {"measurement": "TGI", "setting": "SK-MEL-28 melanoma", "value": "> 100", "unit": "µM"}, {"measurement": "GI50", "setting": "MDA-MB-435", "value": 8.06, "unit": "µM"}, {"measurement": "TGI", "setting": "MDA-MB-435", "value": "> 100", "unit": "µM"}, {"measurement": "GI50", "setting": "SF-539 CNS", "value": 0.357, "unit": "µM"}, {"measurement": "TGI", "setting": "SF-539 CNS", "value": 11.1, "unit": "µM"}, {"measurement": "GI50", "setting": "HS 578T breast", "value": 1.01, "unit": "µM"}, {"measurement": "TGI", "setting": "HS 578T breast", "value": "> 100", "unit": "µM"}, {"measurement": "GI50", "setting": "HCC-2998 colon", "value": 2.89, "unit": "µM"}, {"measurement": "TGI", "setting": "HCC-2998 colon", "value": "> 100", "unit": "µM"}, {"measurement": "GI50", "setting": "HOP-62 NSCLC", "value": 1.31, "unit": "µM"}, {"measurement": "TGI", "setting": "HOP-62 NSCLC", "value": "> 100", "unit": "µM"}, {"measurement": "GI50", "setting": "DU-145 prostate", "value": 0.454, "unit": "µM"}, {"measurement": "TGI", "setting": "DU-145 prostate", "value": 4.79, "unit": "µM"}, {"measurement": "GI50", "setting": "T-47D breast", "value": 0.394, "unit": "µM"}, {"measurement": "TGI", "setting": "T-47D breast", "value": "> 19.9", "unit": "µM"}, {"measurement": "GI50", "setting": "KM12 colon", "value": 45.2, "unit": "µM"}, {"measurement": "TGI", "setting": "KM12 colon", "value": "> 100", "unit": "µM"}, {"measurement": "GI50", "setting": "OVCAR-3 ovarian", "value": 0.621, "unit": "µM"}, {"measurement": "TGI", "setting": "OVCAR-3 ovarian", "value": "> 75", "unit": "µM"}, {"measurement": "GI50", "setting": "OVCAR-5 ovarian", "value": 1.96, "unit": "µM"}, {"measurement": "TGI", "setting": "OVCAR-5 ovarian", "value": "> 100", "unit": "µM"}, {"measurement": "GI50", "setting": "COLO 205 colon", "value": 0.881, "unit": "µM"}, {"measurement": "TGI", "setting": "COLO 205 colon", "value": "> 100", "unit": "µM"}, {"measurement": "GI50", "setting": "RPMI-8226 leukemia", "value": 1.73, "unit": "µM"}, {"measurement": "TGI", "setting": "RPMI-8226 leukemia", "value": 5.97, "unit": "µM"}, {"measurement": "GI50", "setting": "UACC-257 melanoma", "value": "> 100", "unit": "µM"}, {"measurement": "TGI", "setting": "UACC-257 melanoma", "value": "> 100", "unit": "µM"}, {"measurement": "GI50", "setting": "TK-10 renal", "value": "> 67", "unit": "µM"}, {"measurement": "TGI", "setting": "TK-10 renal", "value": "> 100", "unit": "µM"}, {"measurement": "GI50", "setting": "HT29 colon", "value": 0.964, "unit": "µM"}, {"measurement": "TGI", "setting": "HT29 colon", "value": "> 100", "unit": "µM"}, {"measurement": "GI50", "setting": "HOP-92 NSCLC", "value": 0.115, "unit": "µM"}, {"measurement": "TGI", "setting": "HOP-92 NSCLC", "value": 0.916, "unit": "µM"}, {"measurement": "GI50", "setting": "786-0 renal", "value": 1.68, "unit": "µM"}, {"measurement": "TGI", "setting": "786-0 renal", "value": "> 100", "unit": "µM"}, {"measurement": "GI50", "setting": "ACHN renal", "value": 1.74, "unit": "µM"}, {"measurement": "TGI", "setting": "ACHN renal", "value": "> 100", "unit": "µM"}, {"measurement": "GI50", "setting": "OVCAR-8 ovarian", "value": 0.343, "unit": "µM"}, {"measurement": "TGI", "setting": "OVCAR-8 ovarian", "value": 1.91, "unit": "µM"}, {"measurement": "GI50", "setting": "OVCAR-4 ovarian", "value": 0.677, "unit": "µM"}, {"measurement": "TGI", "setting": "OVCAR-4 ovarian", "value": "> 100", "unit": "µM"}, {"measurement": "GI50", "setting": "CCRF-CEM leukemia", "value": 0.386, "unit": "µM"}, {"measurement": "TGI", "setting": "CCRF-CEM leukemia", "value": "> 100", "unit": "µM"}, {"measurement": "GI50", "setting": "EKVX NSCLC", "value": 17.3, "unit": "µM"}, {"measurement": "TGI", "setting": "EKVX NSCLC", "value": "> 100", "unit": "µM"}, {"measurement": "GI50", "setting": "NCI-H23 lung", "value": 1.86, "unit": "µM"}, {"measurement": "TGI", "setting": "NCI-H23 lung", "value": "> 100", "unit": "µM"}, {"measurement": "GI50", "setting": "NCI-H460 lung", "value": 4.29, "unit": "µM"}, {"measurement": "TGI", "setting": "NCI-H460 lung", "value": "> 100", "unit": "µM"}]}]}
